“And” between values parts separate entries of the source, which are not always exact repeats. Equal entries are not always repeated.

Chain of Adenosine A2A receptor (P29274 whole entry): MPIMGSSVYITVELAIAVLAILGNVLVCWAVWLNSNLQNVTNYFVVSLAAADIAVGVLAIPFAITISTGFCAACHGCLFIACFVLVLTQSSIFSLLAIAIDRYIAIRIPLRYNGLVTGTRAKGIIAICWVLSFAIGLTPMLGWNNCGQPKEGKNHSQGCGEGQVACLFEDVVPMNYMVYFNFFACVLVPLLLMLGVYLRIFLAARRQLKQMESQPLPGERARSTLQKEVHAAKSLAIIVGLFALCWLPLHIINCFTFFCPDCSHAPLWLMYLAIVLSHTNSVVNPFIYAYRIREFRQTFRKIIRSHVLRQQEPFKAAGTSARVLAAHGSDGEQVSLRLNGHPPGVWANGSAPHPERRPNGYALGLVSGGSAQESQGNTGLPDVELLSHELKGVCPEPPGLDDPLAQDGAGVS

One assay has as its target Adenosine A2A receptor (Homo sapiens, UniProt P29274). As to the kind of experiment: cAMP assay in 293A cells stably expressing the adenosine A2A receptor (CGS21680 stimulation, HTRF). The arrangement: expressed in transfected cells; host or cells: 293A cells (Invitrogen, Cat# R705-07) infected with A2A-expressing lentivirus (custom packaged by Biosettia), puromycin selected. To be noted: 293A cells stably expressing A2A receptor; 0.1% BSA; 1 uM CGS21680 stimulation; replicate values separated by /; read-out: cAMP (nM) 0.1% BSA, 1 uM CGS. In kind it is cell-based. As to the method:
A 293A cell line (Invitrogen, Cat# R705-07) stably expressing the adenosine A2A receptor was generated in house. Briefly, 293A cells were seeded in 6-well plate and infected with A2A expressing lentivirus (custom packaged by Biosettia) and selected with puromycin (1 ug/ml). Cells survived selection were confirmed for A2A expression by RT-qPCR (RT Reagent: High-Capacity cDNA Reverse Transcription Kit, Applied Biosystems/Thermo Fisher Cat# 4368814, qPCR reagent: SYBR™ Green Master Mix, Applied Biosystems/Thermo Fisher Cat# 4309155). The cells were maintained in DMEM/F12 medium containing 10% FBS, 100 units/ml Penicillin, 100 μg/ml Streptomycin, and 1 μg/ml puromycin at 37° C., 5% CO2. 293A-A2AR cells were harvested on the day of assay and resuspended at 0.6 million cells/ml in DMEM/F12 with 0.1% BSA and 30 U/ml denosine deaminase(Roche, Cat #: 10102121001). Serial dilutions of compounds were prepared in DMEM/F12 with 0.1% BSA to a DMSO concentration of 0.6%. After 4 μl of compound dilutions were added, 4 μl suspended cells were dispensed into low-volume white 384-well plates (Greiner Bio-One). […] The assay plate was then incubated at room temperature for 30 min. 3 μl of d2 conjugated cAMP and 3 μl cryptate conjugated anti-cAMP antibody were then added. D2 conjugated cAMP and cryptate conjugated anti-cAMP antibody (Cisbio, Cat #: 62AM6PEC) were both prepared in cell lysis buffer according to the manufacturer's instruction. After 1 h incubation at room temperature, plates were read in CIARIOstar plate reader (BMG Labtech) using the HTRF detection mode.
Take `Cc1cc(-c2c(OCc3cccc(C(O)(CCO)CCO)n3)nc(N)nc2-c2ccc(F)cc2)cc(C(F)F)n1` [Example 432, 3-(6-(((2-amino-5-(2-(difluoromethyl)-6-methylpyridin-4-yl)-6-(4-fluorophenyl)pyrimidin-4-yl)oxy)methyl)pyridin-2-yl)pentane-1,3,5-triol]: the IC50 amounted to 1260 nM. On to `Cc1cc(-c2c(OCc3cc(C(C)(C)O)cc(-c4nnn(C)n4)n3)nc(N)nc2-c2ccc(F)cc2)cc(C(F)F)n1` [Example 427, 2-(2-(((2-amino-5-(2-(difluoromethyl)-6-methylpyridin-4-yl)-6-(4-fluorophenyl)pyrimidin-4-yl)oxy)methyl)-6-(2-methyl-2H-tetrazol-5-yl)pyridin-4-yl)propan-2-ol], for which the IC50 was 5150 nM and 6010 nM.

Still in this assay, the particulars now being: 293A-A2AR cells, 0.1% BSA, 1 uM CGS; read-out: cAMP (nM) 0.1% BSA, 1 uM CGS.
On to `Cc1cc(-c2c(OCc3cccc(C#CC(C)(C)C(=O)O)n3)nc(N)nc2-c2ccc(F)cc2)cc(C(F)F)n1` [Example 384, 4-(6-(((2-amino-5-(2-(difluoromethyl)-6-methylpyridin-4-yl)-6-(4-fluorophenyl)pyrimidin-4-yl)oxy)methyl)pyridin-2-yl)-2,2-dimethylbut-3-ynoic acid], for which the IC50 came out at 15400 nM. Take `Cc1cc(-c2c(OCc3cccc(N4CCC(C)(O)CC4)n3)nc(N)nc2-c2ccc(F)cc2)cc(C(F)F)n1` [Example 259, 1-(6-(((2-amino-5-(2-(difluoromethyl)-6-methylpyridin-4-yl)-6-(4-fluorophenyl)pyrimidin-4-yl)oxy)methyl)pyridin-2-yl)-4-methylpiperidin-4-ol]: the IC50 is over 25000 nM. Turning to `Cc1cc(-c2c(OCc3cc4ccccc4cn3)nc(N)nc2-c2ccc(F)cc2)cc(C(F)F)n1` [Example 382, 5-(2-(difluoromethyl)-6-methylpyridin-4-yl)-4-(4-fluorophenyl)-6-(isoquinolin-3-ylmethoxy)pyrimidin-2-amine], the IC50 is 955 nM. As to `Cc1cc(-c2c(OCc3cccc(N4CCC[C@@H]4C(=O)O)n3)nc(N)nc2-c2ccc(F)cc2)cc(C(F)F)n1` [Example 294, (6-(((2-amino-5-(2-(difluoromethyl)-6-methylpyridin-4-yl)-6-(4-fluorophenyl)pyrimidin-4-yl)oxy)methyl)pyridin-2-yl)-D-proline], the IC50 was 19700 nM. Still for that read-out and setting: for `CCc1nnn(CC(O)COC)c1COc1nc(N)nc(-c2ccc(F)cc2)c1-c1cc(C)nc(C(F)F)c1` (stereo not drawn) [Example 322, 1-(5-(((2-amino-5-(2-(difluoromethyl)-6-methylpyridin-4-yl)-6-(4-fluorophenyl)pyrimidin-4-yl)oxy)methyl)-4-ethyl-1H-1,2,3-triazol-1-yl)-3-methoxypropan-2-ol] the value was 2470 nM; for `Cc1cc(-c2c(-c3cn(Cc4cccc(C(C)(C)O)n4)nn3)nc(N)nc2-c2cccc(C#N)c2C)cc(C(F)F)n1` [Example 312, 3-(2-amino-5-(2-(difluoromethyl)-6-methylpyridin-4-yl)-6-(1-((6-(2-hydroxypropan-2-yl)pyridin-2-yl)methyl)-1H-1,2,3-triazol-4-yl)pyrimidin-4-yl)-2-methylbenzonitrile], 16600 nM; for `CCc1nn(CC(=O)O)nc1COc1nc(N)nc(-c2ccc(F)cc2)c1-c1cc(C)nc(C(F)F)c1` [Example 231, 2-(4-(((2-amino-5-(2-(difluoromethyl)-6-methylpyridin-4-yl)-6-(4-fluorophenyl)pyrimidin-4-yl)oxy)methyl)-5-ethyl-2H-1,2,3-triazol-2-yl)acetic acid], over 25000 nM.

Turning to `CCc1nnn(CC(C)(C)O)c1COc1nc(N)nc(-c2ccc(F)cc2)c1-c1cc(C)nc(C(F)F)c1` [Example 253, 1-(5-(((2-amino-5-(2-(difluoromethyl)-6-methylpyridin-4-yl)-6-(4-fluorophenyl)pyrimidin-4-yl)oxy)methyl)-4-ethyl-1H-1,2,3-triazol-1-yl)-2-methylpropan-2-ol], the IC50 was found to be 2150 nM. Turning to `CCc1c(COc2nc(N)nc(-c3ccc(F)cc3)c2-c2cc(C)nc(C(F)F)c2)nnn1C[C@@H](O)CO` [Example 289, (R)-3-(4-(((2-amino-5-(2-(difluoromethyl)-6-methylpyridin-4-yl)-6-(4-fluorophenyl)pyrimidin-4-yl)oxy)methyl)-5-ethyl-1H-1,2,3-triazol-1-yl)propane-1,2-diol], the IC50 stood at 2090 nM. `Cc1cc(-c2c(-c3ccc(F)cc3)nc(N)nc2-c2cn(Cc3cccc(C(C)(C)O)n3)nn2)cc(C(F)F)n1` [Example 298, 2-(6-((4-(2-amino-5-(2-(difluoromethyl)-6-methylpyridin-4-yl)-6-(4-fluorophenyl)pyrimidin-4-yl)-1H-1,2,3-triazol-1-yl)methyl)pyridin-2-yl)propan-2-ol]: the IC50 was over 10000 nM. Consider `Cc1cc(-c2c(OCc3ccc(F)c(C(C)(C)C(=O)O)n3)nc(N)nc2-c2ccc(F)cc2)cc(C(F)F)n1` [Example 375, 2-(6-(((2-amino-5-(2-(difluoromethyl)-6-methylpyridin-4-yl)-6-(4-fluorophenyl)pyrimidin-4-yl)oxy)methyl)-3-fluoropyridin-2-yl)-2-methylpropanoic acid], for which the IC50 is 17600 nM and 23300 nM. With `Cc1cc(-c2c(OCc3nc4ccccn4n3)nc(N)nc2-c2ccc(F)cc2)cc(C(F)F)n1` [Example 341, 4-([1,2,4]triazolo[1,5-a]pyridin-2-ylmethoxy)-5-(2-(difluoromethyl)-6-methylpyridin-4-yl)-6-(4-fluorophenyl)pyrimidin-2-amine], the IC50 worked out at 1400 nM. As to `Cc1cc(-c2c(OCc3cc(C(C)(C)C#N)ccn3)nc(N)nc2-c2cccc(C#N)c2C)cc(C(F)F)n1` [Example 261, 3-(2-amino-6-((4-(2-cyanopropan-2-yl)pyridin-2-yl)methoxy)-5-(2-(difluoromethyl)-6-methylpyridin-4-yl)pyrimidin-4-yl)-2-methylbenzonitrile], the IC50 was found to be 2190 nM. On to `Cc1cc(-c2c(OCc3cccc(C(C)(C)N)n3)nc(N)nc2-c2ccc(F)cc2)cc(C(F)F)n1` [Example 383, 4-((6-(2-aminopropan-2-yl)pyridin-2-yl)methoxy)-5-(2-(difluoromethyl)-6-methylpyridin-4-yl)-6-(4-fluorophenyl)pyrimidin-2-amine], for which the IC50 was 1010 nM. For `Cc1cc(-c2c(OCc3ccnc(N(C)C)n3)nc(N)nc2-c2ccc(F)cc2)cc(C(F)F)n1` [Example 307, 4-(((2-amino-5-(2-(difluoromethyl)-6-methylpyridin-4-yl)-6-(4-fluorophenyl)pyrimidin-4-yl)oxy)methyl)-N,N-dimethylpyrimidin-2-amine], the IC50 was 211 nM and 246 nM. On the same count and under the same terms, for `Cc1cc(-c2c(NCc3cccc(C(C)(C)C#N)n3)nc(N)nc2-c2ccc(F)cc2)cc(C(F)F)n1` [Example 356, 2-(6-(((2-amino-5-(2-(difluoromethyl)-6-methylpyridin-4-yl)-6-(4-fluorophenyl)pyrimidin-4-yl)amino)methyl)pyridin-2-yl)-2-methylpropanenitrile] the value was 1420 nM; for `Cc1cc(-c2c(OCCc3cccnc3)nc(N)nc2-c2ccc(F)cc2)cc(C(F)F)n1` [Example 299, 5-(2-(difluoromethyl)-6-methylpyridin-4-yl)-4-(4-fluorophenyl)-6-(2-(pyridin-3-yl)ethoxy)pyrimidin-2-amine], 1110 nM; for `Cc1cc(-c2c(OCc3ccn(C(C)(C)C(=O)O)n3)nc(N)nc2-c2ccc(F)cc2)cc(C(F)F)n1` [Example 388, 2-(3-(((2-amino-5-(2-(difluoromethyl)-6-methylpyridin-4-yl)-6-(4-fluorophenyl)pyrimidin-4-yl)oxy)methyl)-1H-pyrazol-1-yl)-2-methylpropanoic acid], 7660 nM.

In the case of `Cc1cc(-c2c(OCc3cccc(N)n3)nc(N)nc2-c2ccc(F)cc2)cc(C(F)F)n1` [Example 376], the IC50 is 133 nM and 209 nM and 375 nM and 142 nM and 48 nM. For the compound `CCc1nn(CC(O)COC)nc1COc1nc(N)nc(-c2ccc(F)cc2)c1-c1cc(C)nc(C(F)F)c1` (stereo not drawn) [Example 321, 1-(4-(((2-amino-5-(2-(difluoromethyl)-6-methylpyridin-4-yl)-6-(4-fluorophenyl)pyrimidin-4-yl)oxy)methyl)-5-ethyl-2H-1,2,3-triazol-2-yl)-3-methoxypropan-2-ol], the IC50 is 2290 nM. For the compound `Cc1cc(-c2c(OCCc3ccncc3)nc(N)nc2-c2ccc(F)cc2)cc(C(F)F)n1` [Example 348, 5-(2-(difluoromethyl)-6-methylpyridin-4-yl)-4-(4-fluorophenyl)-6-(2-(pyridin-4-yl)ethoxy)pyrimidin-2-amine], the IC50 came out at 2620 nM. As to `CCc1nnn(C[C@@H](O)CO)c1COc1nc(N)nc(-c2ccc(F)cc2)c1-c1cc(C)nc(C(F)F)c1` [Example 290], the IC50 stood at 1310 nM.

(Values after US20210355104A1, “ADENOSINE RECEPTOR BINDING COMPOUNDS” (Nikang Therapeuticsm Inc., priority 2018, published 2021).)
